Experimental data taken from PMC7118210 (Frontiers in Pharmacology, 2020).
Read-outs that look alike come from different tables or passages of the source.

Test: Single-dose pharmacokinetics in rats (plasma, UHPLC/MS/MS)
Type: in vivo, Sprague Dawley rats
Details: for MRT last: read-out: MRT0-t; for MRT inf: read-out: MRT0-∞
Text: Sixty healthy adult Sprague Dawley rats (180-220 g, half male and female) were purchased from the Guangdong Medical Laboratory Animal Center (Guangzhou, Guangdong, China). Thirty Beagle dogs (10-14 kg, half male and female) were purchased from the […] Laboratory Animal Science & Technology Co., Ltd. (Gaoyao, Guangdong, China). All animals were housed under humanized conditions with free access to food and water, and acclimated to the living conditions for at least one week prior to experimentation at the Laboratory Animal Center of the School of Life Sciences, Sun Yat-sen University. Environmental conditions were maintained at 20°C-25°C, 55% ± 15% relative humidity, 12-h light/dark cycles, and 12 air changes per hour. Prior to experimentation, the animals were fasted overnight with water available ad libitum. All animals were healthy based on physical examination and laboratory analyses performed before and after the experiments. At the end of the experiments, the dogs were returned to the Laboratory Animal Center of School of Life Sciences, Sun Yat-sen University. […] All blood samples were transferred into heparin-treated centrifuge tubes and centrifuged for 10 min at 4,000 rpm and 4°C. All human urine samples were mixed and transferred (4 ml) into storage tubes. All biological samples were stored at -80°C. […] The optimal volume and activity in unit volume of enzyme solution [0.2 M acetic acid/water solution: 0.2 M ammonium acetate/water solution, 15:35 (v/v)] were determined through a pretest of the enzyme (rat plasma, 10 μl, 10 U μl^-1; dog plasma, 10 μl, 10 U μl^-1; human plasma, 20 μl, 20 U μl^-1; human urine, 10 μl, 10 U μl^-1). After enzyme incubation, 10 μl of IS solution was added to the plasma and urine samples (2 μg ml^-1 quercetin 3-β-D-glucoside for rat and dog plasma; 583 ng ml^-1 naringin-D4 and 160 ng ml^-1 naringenin-D4 for human plasma; and 9,710 ng ml^-1 naringin-D4 and 6,000 ng ml^-1 naringenin-D4 for human urine). To each fecal sample, 9-fold methanol-normal saline (2:1, v/v) was added, mixed (18,000 rpm, 15 min) by vortexing and centrifuged (10 min, 9,000 rpm, 4°C). Next, 10 μl IS solution (971 ng ml^-1 naringin-D4 and 600 ng ml^-1 naringenin-D4) was added to the supernatants of feces (200 μl) without enzyme incubation. […] The solid material was dissolved with acetonitrile-water (1:1, v/v) and injected into the ultra high-performance liquid chromatography coupled with triple quadrupole mass spectrometry (UHPLC/MS/MS) system as described below. The analysis of nonclinical and clinical samples was performed with a UHPLC/MS/MS system that consisted of a Shimadzu Nexera X2 ultra high-performance liquid chromatography (UHPLC) (Shimadzu Corp., Kyoto, Japan) coupled with an AB Sciex API4000 triple-quadrupole mass spectrometry (MS/MS) system (AB Sciex, Foster City, CA, USA) equipped with an electrospray ionization source and controlled by Analyst (v. 1.6.2) software. […] The injection volume was 10 μl with the flow rate of 0.3 ml min^-1 for plasma, and 0.4 ml min^-1 for urine and feces. The compounds were detected by multiple reaction monitoring in the negative ion electrospray mode. The electrospray source conditions were as follows: ion source gas1 30 psi, ion source gas2 60 psi, curtain gas 20 psi, collisionally activated dissociation (CAD) gas 8 psi, temperature 500°C, and ion spray voltage -4,500 V. Zero air was used for ion source gas1 and ion source gas2 and nitrogen for curtain gas and CAD gas. […] All pharmacokinetic and excretion parameters were expressed as mean ± standard deviation (SD). All mean and SD values were reported to three significant figures. The pharmacokinetic parameters were calculated using the Phoenix WinNonlin software (Version 6.4, Pharsight Corp., Cary, NC, USA) and compared using the Student's t-test (p < 0.05) in SPSS 18.0 (SPSS Inc., Chicago, IL, USA). […]

[1] = both sexes, Sprague Dawley, rat, plasma, iv, 42 mg/kg
[2] = both sexes, Sprague Dawley, rat, plasma, iv, 42 mg/kg, read-out: Cmax
[3] = both sexes, Sprague Dawley, rat, plasma, iv, 42 mg/kg, read-out: Vd
[4] = female, Sprague Dawley, rat, plasma, iv, 42 mg/kg
[5] = female, Sprague Dawley, rat, plasma, iv, 42 mg/kg, read-out: Cmax
[6] = male, Sprague Dawley, rat, plasma, iv, 42 mg/kg
[7] = male, Sprague Dawley, rat, plasma, iv, 42 mg/kg, read-out: Cmax
[8] = naringenin after naringin 168 mg kg^-1 p.o. single dose, rat
[9] = both sexes, Sprague Dawley, rat, plasma, po, 10.5 mg/kg
[10] = both sexes, Sprague Dawley, rat, plasma, po, 21 mg/kg
[11] = both sexes, Sprague Dawley, rat, plasma, po, 42 mg/kg
[12] = both sexes, Sprague Dawley, rat, plasma, po, 168 mg/kg
[13] = female, Sprague Dawley, rat, plasma, po, 10.5 mg/kg
[14] = female, Sprague Dawley, rat, plasma, po, 21 mg/kg
[15] = female, Sprague Dawley, rat, plasma, po, 42 mg/kg
[16] = female, Sprague Dawley, rat, plasma, po, 168 mg/kg
[17] = male, Sprague Dawley, rat, plasma, po, 10.5 mg/kg
[18] = male, Sprague Dawley, rat, plasma, po, 21 mg/kg
[19] = male, Sprague Dawley, rat, plasma, po, 42 mg/kg
[20] = male, Sprague Dawley, rat, plasma, po, 168 mg/kg
[21] = naringin 168 mg kg^-1 p.o. single dose, rat

`O=C1C[C@@H](c2ccc(O)cc2)Oc2cc(O)cc(O)c21` [naringenin, Naringenin] showed an AUC(0-inf) [1] of 2390 ± 1110 ng·h/mL, an AUC(0-t) [1] of 2360 ± 1120 ng·h/mL and a Tmax [1] of 0.04 ± 0.021 h. The clearance [1] was 390 mL/min/kg, the half-life [1] was 2.45 ± 1.38 h and the Cmax [2] was 3980 ± 2510 ng/mL. It also gave an MRT last [1] of 3.36 ± 2.11 h, an MRT inf [1] of 3.66 ± 2.14 h and a Vd [3] of 88.3 ± 113 L/kg. For the same compound, the half-life (both sexes, Sprague Dawley, rat, plasma, oral, naringenin in rats, studies overall) was 2.31 ± 1.21 h, the Tmax [4] was 0.043 ± 0.025 h and the half-life [4] was 2.91 ± 1.87 h. For the same compound, the Cmax [5] was 2430 ± 1550 ng/mL, the AUC(0-inf) [6] was 3010 ± 982 ng·h/mL and the AUC(0-t) [6] was 2990 ± 986 ng·h/mL. For the same compound, the Cmax [7] was 5540 ± 2400 ng/mL, the CL [8] was 327 ± 288 mL/min/kg and the Vd [8] was 93.4 ± 121 L/kg. The lag-time in plasma (rats, after p.o. naringin) was 0.701 ± 0.523 h and the “time for concentrations to increase to Cmax after the lag-time” value (rats, after p.o. naringin) was 2.93 ± 2.01 h.
For `C[C@@H]1O[C@@H](O[C@H]2[C@H](Oc3cc(O)c4c(c3)O[C@H](c3ccc(O)cc3)CC4=O)O[C@H](CO)[C@@H](O)[C@@H]2O)[C@H](O)[C@H](O)[C@H]1O` [naringin, Naringin], the AUC(0-inf) [1] was 18100 ± 7550 ng·h/mL, the AUC(0-t) [1] was 18100 ± 7580 ng·h/mL and the Tmax [1] was 0.03 h. The clearance [1] was 48.3 mL/min/kg, the half-life [1] was 1.62 ± 1.18 h and the Cmax [2] was 88500 ± 51000 ng/mL. For the same compound, the MRT last [1] was 0.496 ± 0.382 h, the MRT inf [1] was 0.57 ± 0.476 h and the Vd [3] was 8.29 ± 10 L/kg. For the same compound, the half-life (both sexes, Sprague Dawley, rat, plasma, po) was under 1 h, the AUC(0-inf) [9] was 35.7 ± 29.3 ng·h/mL and the AUC(0-t) [9] was 32.7 ± 27.7 ng·h/mL. For the same compound, the Tmax [9] was 1.5 ± 2.35 h, the half-life [9] was 0.328 ± 0.275 h and the Cmax (both sexes, Sprague Dawley, rat, plasma, po, 10.5 mg/kg, read-out: Cmax) was 31.7 ± 13.2 ng/mL. It also gave an MRT last [9] of 0.741 ± 0.423 h, an MRT inf [9] of 1.22 ± 0.297 h and an AUC(0-inf) [10] of 38.4 ± 21.4 ng·h/mL. The AUC(0-t) [10] was 34.2 ± 20.3 ng·h/mL, the Tmax [10] was 1.53 ± 2.36 h and the half-life [10] was 0.5 ± 0.493 h. For the same compound, the Cmax (both sexes, Sprague Dawley, rat, plasma, po, 21 mg/kg, read-out: Cmax) was 30.5 ± 16.3 ng/mL, the MRT last [10] was 1.18 ± 0.399 h and the MRT inf [10] was 1.42 ± 0.621 h. The AUC(0-inf) [11] was 45.1 ± 55.4 ng·h/mL, the AUC(0-t) [11] was 40.7 ± 51.3 ng·h/mL and the Tmax [11] was 1.18 ± 1.78 h. For the same compound, the half-life [11] was 0.463 ± 0.598 h, the Cmax (both sexes, Sprague Dawley, rat, plasma, po, 42 mg/kg, read-out: Cmax) was 52.6 ± 78.8 ng/mL and the MRT last [11] was 1.1 ± 0.381 h. For the same compound, the MRT inf [11] was 1.24 ± 0.292 h, the AUC(0-inf) [12] was 145 ± 66.4 ng·h/mL and the AUC(0-t) [12] was 140 ± 66.3 ng·h/mL. It also gave a Tmax [12] of 2.85 ± 4.06 h, a half-life [12] of 0.738 ± 0.781 h and an MRT last [12] of 2.01 ± 0.451 h. The MRT inf [12] was 1.96 ± 1.08 h, the Tmax (both sexes, Sprague Dawley, rat, plasma, po, rats, nonclinical p.o. administration studies overall) was 1.77 ± 2.64 h and the AUC(0-inf) [4] was 14800 ± 7280 ng·h/mL. It also gave an AUC(0-t) [4] of 14800 ± 7290 ng·h/mL, a Tmax [4] of 0.03 h and a half-life [4] of 1.6 ± 0.972 h. For the same compound, the Cmax [5] was 70200 ± 60000 ng/mL, the AUC(0-inf) [13] was 34.6 ± 31.9 ng·h/mL and the AUC(0-t) [13] was 31.9 ± 29.9 ng·h/mL. It also gave a Tmax [13] of 1.05 ± 0.622 h, a half-life [13] of 0.465 ± 0.344 h and a Cmax (female, Sprague Dawley, rat, plasma, po, 10.5 mg/kg, read-out: Cmax) of 27.2 ± 11.2 ng/mL. The AUC(0-inf) [14] was 51.9 ± 15.7 ng·h/mL, the AUC(0-t) [14] was 47 ± 15.6 ng·h/mL and the Tmax [14] was 1.55 ± 2.49 h. It also gave a half-life [14] of 0.675 ± 0.57 h, a Cmax (female, Sprague Dawley, rat, plasma, po, 21 mg/kg, read-out: Cmax) of 31.1 ± 16 ng/mL and an AUC(0-inf) [15] of 15.3 ± 11.6 ng·h/mL. For the same compound, the AUC(0-t) [15] was 13.3 ± 10.3 ng·h/mL, the Tmax [15] was 1.7 ± 2.42 h and the half-life [15] was 0.55 ± 0.813 h. For the same compound, the Cmax (female, Sprague Dawley, rat, plasma, po, 42 mg/kg, read-out: Cmax) was 12.6 ± 9.42 ng/mL, the AUC(0-inf) [16] was 142 ± 52.4 ng·h/mL and the AUC(0-t) [16] was 137 ± 50.7 ng·h/mL. It also gave a Tmax [16] of 1.95 ± 3.39 h, a half-life [16] of 0.85 ± 0.854 h and a Cmax (female, Sprague Dawley, rat, plasma, po, 168 mg/kg, read-out: Cmax) of 95.8 ± 54.4 ng/mL. The AUC(0-inf) [6] was 21400 ± 6930 ng·h/mL, the AUC(0-t) [6] was 21300 ± 7030 ng·h/mL and the Tmax [6] was 0.03 h. For the same compound, the half-life [6] was 1.65 ± 1.48 h, the Cmax [7] was 106000 ± 37600 ng/mL and the AUC(0-inf) [17] was 36.9 ± 30.2 ng·h/mL. It also gave an AUC(0-t) [17] of 33.5 ± 28.8 ng·h/mL, a Tmax [17] of 1.95 ± 3.4 h and a half-life [17] of 0.19 ± 0.063 h. It also gave a Cmax (male, Sprague Dawley, rat, plasma, po, 10.5 mg/kg, read-out: Cmax) of 36.1 ± 14.9 ng/mL, an AUC(0-inf) [18] of 24.8 ± 18 ng·h/mL and an AUC(0-t) [18] of 21.4 ± 16.5 ng·h/mL. For the same compound, the Tmax [18] was 1.5 ± 2.52 h, the half-life [18] was 0.325 ± 0.381 h and the Cmax (male, Sprague Dawley, rat, plasma, po, 21 mg/kg, read-out: Cmax) was 29.9 ± 18.5 ng/mL. It also gave an AUC(0-inf) [19] of 74.9 ± 67.6 ng·h/mL, an AUC(0-t) [19] of 68.1 ± 62.7 ng·h/mL and a Tmax [19] of 0.65 ± 0.762 h. The half-life [19] was 0.375 ± 0.354 h, the Cmax (male, Sprague Dawley, rat, plasma, po, 42 mg/kg, read-out: Cmax) was 92.7 ± 99.4 ng/mL and the AUC(0-inf) [20] was 149 ± 84.3 ng·h/mL. For the same compound, the AUC(0-t) [20] was 144 ± 80.3 ng·h/mL, the Tmax [20] was 3.75 ± 4.85 h and the half-life [20] was 0.625 ± 0.781 h. The Cmax (male, Sprague Dawley, rat, plasma, po, 168 mg/kg, read-out: Cmax) was 113 ± 102 ng/mL, the Vd (naringin 10.5 mg kg^-1 p.o. single dose, rat) was 174 ± 98.3 L/kg and the Vd (naringin 21 mg kg^-1 p.o. single dose, rat) was 322 ± 239 L/kg. The Vd (naringin 42 mg kg^-1 p.o. single dose, rat) was 586 ± 394 L/kg, the Cmax [21] was 104 ± 77.5 ng/mL and the Vd [21] was 639 ± 657 L/kg.
